Measured values taken from US20100111867A1, “CARBORANE-PHOSPHONIUM COMPOUNDS AND THEIR USE IN BORON NEUTRON CAPTURE THERAPY AND IMAGING” (THE UNIVERSITY OF SYDNEY, priority 2007, published 2010).

How the values were obtained:
[1] = tested on: SF268 (human glioblastoma) cell line; assay: Preliminary in vitro cytotoxicity screening against SF268 cell line; type: cell-based
From the text: In contrast to the 1,12-carborane derivative 4, the 1,2- and 1,7-isomers undergo a deboronation reaction in polar solvents to afford the corresponding zwitterionic nido-carborane phosphonium species.

[2] = Deboronation of closo-carborane phosphonium salts in polar solvents; type: physicochemical; conditions: polar solvents such as DMSO
From the text: The deboronation reaction was not observed for 4, which contains 1,12-carborane. The inventors hypothesise that 4 is highly resistant to the deboronation reaction because no boron atoms within the cluster are bonded to two adjacent and electronegative carbon atoms. The facile deboronation of closo-1,2-carborane under mild, non-basic conditions is known with alcohols, water and acids (E. Svantesson, J. Pettersson, Å. Olin, K. Markides, S. Sjöberg, Acta Chem. Scand., 1999, 53, 731. V. A. Ol'shevskaya, R. Ayuob, Z. G. Brechko, P. V. Petrovskii, E. G. Kononova, G. L. Levit, V. P. Krasnov, V. N. Charushin, O. N. Chupakhin, V. N. Kalinin, J. Organomet. Chem., 2005, 690, 2761. Y.-J. Lee, J.-D. Lee, J. Ko, S.-H. Kim, S. O. Kang, Chem. Commun., 2003, 1364) and has also been observed when functional groups located α- to the cage are electron-withdrawing and the compounds are exposed to polar solvents containing small amounts of H2O or MeOH (J. J. Schaeck, S. B. Kahl, Inorg. Chem., 1999, 38, 204). In the present case, the deboronation reactions occur in polar solutions such as dry DMF and thus most likely proceed by nucleophilic attack of the iodide counter-ion on the most electrophilic boron atoms in the cage, i.e. B3 (or B6) for 1,2-carborane and B2 (or B3) for 1,7-carborane.

| deboronation reaction to nido-carborane zwitterion [2] | Molecule | GI50 [1] [µM] |
| --- | --- | --- |
| not observed | methyldiphenyl(1,12-dicarba-closo-dodecaboranyl)phosphonium iodide [Compound 4] | > 40 |
| – | C[P+](c1ccccc1)(c1ccccc1)c1ccccc1 [TPMP, triphenylmethylphosphonium, reference compound] | 12.5 |
| spontaneously deboronate | methyldiphenyl(1,2-dicarba-closo-dodecaboranyl)phosphonium iodide [Compound 5] | – |
| spontaneously deboronate | methyldiphenyl(1,7-dicarba-closo-dodecaboranyl)phosphonium iodide [Compound 6] | – |
